Format in all cases: biochemical
The target in one experiment is T1, HDAC6 (Homo sapiens, UniProt Q9UBN7).
T1 construct: purchased Reaction Biology
T1 sequence (Q9UBN7 1-1215): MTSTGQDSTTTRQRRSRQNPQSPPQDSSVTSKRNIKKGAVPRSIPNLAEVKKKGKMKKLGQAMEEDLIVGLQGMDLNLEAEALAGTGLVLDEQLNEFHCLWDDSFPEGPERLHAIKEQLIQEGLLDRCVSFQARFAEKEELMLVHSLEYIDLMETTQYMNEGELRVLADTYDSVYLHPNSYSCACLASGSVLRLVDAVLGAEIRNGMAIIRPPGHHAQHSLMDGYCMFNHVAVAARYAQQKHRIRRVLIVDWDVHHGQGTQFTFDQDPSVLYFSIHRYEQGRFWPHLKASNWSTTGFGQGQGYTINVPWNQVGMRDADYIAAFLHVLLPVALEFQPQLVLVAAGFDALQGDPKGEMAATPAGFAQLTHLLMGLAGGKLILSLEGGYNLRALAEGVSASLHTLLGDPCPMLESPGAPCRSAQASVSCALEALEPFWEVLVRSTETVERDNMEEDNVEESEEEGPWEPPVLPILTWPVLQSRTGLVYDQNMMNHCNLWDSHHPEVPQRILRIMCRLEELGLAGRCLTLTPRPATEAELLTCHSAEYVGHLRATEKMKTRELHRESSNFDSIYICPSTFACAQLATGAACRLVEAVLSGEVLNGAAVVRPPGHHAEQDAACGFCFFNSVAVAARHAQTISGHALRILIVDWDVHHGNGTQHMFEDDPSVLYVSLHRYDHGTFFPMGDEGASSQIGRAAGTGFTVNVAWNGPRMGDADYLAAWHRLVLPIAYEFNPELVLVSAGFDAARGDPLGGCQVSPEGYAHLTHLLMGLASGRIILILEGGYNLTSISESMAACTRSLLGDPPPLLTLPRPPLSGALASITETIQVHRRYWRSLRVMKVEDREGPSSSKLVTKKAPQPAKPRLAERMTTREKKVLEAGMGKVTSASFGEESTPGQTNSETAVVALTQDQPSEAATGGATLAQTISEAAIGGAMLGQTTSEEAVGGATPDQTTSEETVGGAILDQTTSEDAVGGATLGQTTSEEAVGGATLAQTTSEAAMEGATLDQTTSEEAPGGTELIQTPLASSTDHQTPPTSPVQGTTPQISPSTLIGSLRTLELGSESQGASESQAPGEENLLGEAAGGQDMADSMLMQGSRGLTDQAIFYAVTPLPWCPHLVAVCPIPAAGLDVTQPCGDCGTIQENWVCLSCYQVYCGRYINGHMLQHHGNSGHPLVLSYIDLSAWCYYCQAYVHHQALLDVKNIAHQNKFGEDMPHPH
The experiment in a line: HDAC enzymatic assay (Reaction Biology), HDAC6. The settings on record: 10-dose response curve; read-out: Compound IC50 (M), HDAC6. Here is the method:
(§1) Compound 1 was tested in an enzymatic assay from Reaction Biology® against 10 HDAC isoforms. The IC50 values were derived from a 10-dose response curve.
(§2) Base Reaction buffer: 50 mM Tris-HCl, pH8.0, 137 mM NaCl, 2.7 mM KCl, and 1 mM MgCl2, Add fresh: 1 mg/ml BSA, 1% DMSO
(§3) Fluorogenic HDAC General Substrate (HDAC1, HDAC2, HDAC3, HDAC6, HDAC10, and HDAC11): 50 μM, Arg-His-Lys-Lys(Ac)-AMC
(§4) 1. Delivered 2× enzyme in wells of reaction plate except in the control wells and added buffer to control wells. 2. Delivered compounds in 100% DMSO into the enzyme mixture by Acoustic technology (Echo550; nanoliter range). Spin down and pre-incubation. 3. Delivered 2× Substrate Mixture (Fluorogenic HDAC Substrate and co-factor if applicable) in all reaction wells to initiate the reaction. Spin and shake. 4. Incubated for 30 min for Class 2A, 1 h for HDAC1, 2, 3, and 6, and 2 h for the rest of HDAC isoforms and SIRTs at 30° C. with seal.
(§5) 5. Added Developer with Trichostatin A (or Nicotinamide for SIRTs) to stop the reaction and to generate fluorescent color. 6. The fluorescence that was generated was detected with excitation (Ex) at […] and emission (Em) at 460 nM by the EnVision Multilabel Plate Reader (PerkinElmer®, Santa Clara, Calif., USA).
(§6) IC50 values were derived from a 10-dose response curve.

The target in a further experiment is T2, HDAC9 (Homo sapiens, UniProt Q9UKV0).
T2 construct: purchased Reaction Biology
Briefly: HDAC enzymatic assay (Reaction Biology), HDAC9. The settings on record: summary of Table 1. Here is the method: as §1, §2
(§7) Class2A Substrate (HDAC4, HDAC5, HDAC7, and HDAC9): Boc-Lys(trifluoroacetyl)-AMC
as §4, §5, §6

A further experiment addresses T3, HDAC3 (Homo sapiens, UniProt O15379).
T3 construct: purchased Reaction Biology
The experiment in a line: HDAC enzymatic assay (Reaction Biology), HDAC3. The procedure: as §1, §2, §3, §4, §5, §6

In the next experiment the target is T4, HDAC4 (Homo sapiens, UniProt P56524).
T4 construct: purchased Reaction Biology
The experiment in a line: HDAC enzymatic assay (Reaction Biology), HDAC4. To be noted: summary of Table 1. Here is the method: as §1, §2, §7, §4, §5, §6

The next experiment addresses T5, HDAC2 (Homo sapiens, UniProt Q92769).
T5 construct: purchased Reaction Biology
Briefly: HDAC enzymatic assay (Reaction Biology), HDAC2. The procedure: as §1, §2, §3, §4, §5, §6

The target in another experiment is T6, HDAC5 (Homo sapiens, UniProt Q9UQL6).
T6 construct: purchased Reaction Biology
The experiment in a line: HDAC enzymatic assay (Reaction Biology), HDAC5. The procedure:
as §1, §2, §7, §4, §5, §6

The target in the next experiment is T7, HDAC1 (Homo sapiens, UniProt Q13547).
T7 construct: purchased Reaction Biology
Briefly: HDAC enzymatic assay (Reaction Biology), HDAC1. The procedure: as §1, §2, §3, §4, §5, §6

In another experiment the target is T8, HDAC8 (Homo sapiens, UniProt Q9BY41).
T8 construct: purchased Reaction Biology
T8 sequence (Q9BY41 1-377): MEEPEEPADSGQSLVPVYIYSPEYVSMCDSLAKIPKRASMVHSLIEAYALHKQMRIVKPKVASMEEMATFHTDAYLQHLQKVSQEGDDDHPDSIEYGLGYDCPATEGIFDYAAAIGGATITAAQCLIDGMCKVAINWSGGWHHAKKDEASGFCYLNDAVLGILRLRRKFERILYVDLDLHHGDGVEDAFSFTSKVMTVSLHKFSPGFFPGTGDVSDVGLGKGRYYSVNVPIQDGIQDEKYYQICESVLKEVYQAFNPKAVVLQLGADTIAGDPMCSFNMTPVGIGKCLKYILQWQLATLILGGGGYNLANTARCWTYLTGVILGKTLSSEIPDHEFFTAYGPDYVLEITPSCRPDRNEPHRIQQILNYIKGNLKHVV
The experiment in a line: HDAC enzymatic assay (Reaction Biology), HDAC8. The procedure:
as §1, §2
(HDAC8 only substrate: 50 μM, Arg-His-Lys(Ac)-Lys(Ac))-AMC
as §4, §5, §6

The values below come from US20220387604A1, “SELECTIVE DUAL HISTONE DEACETYLASE 6/8 (HDAC6/8) DEGRADERS AND METHODS OF USE THEREOF” (DANA-FARBER CANCER INSTITUTE, INC., priority 2019, published 2022).

Broadly, the IC50 is the concentration needed to halve the response being measured.

Structures are written as SMILES. Entries after “also recorded” stand apart in the source; their conditions may differ. Some results are limits rather than exact numbers.

T7 sequence (Q13547 whole entry): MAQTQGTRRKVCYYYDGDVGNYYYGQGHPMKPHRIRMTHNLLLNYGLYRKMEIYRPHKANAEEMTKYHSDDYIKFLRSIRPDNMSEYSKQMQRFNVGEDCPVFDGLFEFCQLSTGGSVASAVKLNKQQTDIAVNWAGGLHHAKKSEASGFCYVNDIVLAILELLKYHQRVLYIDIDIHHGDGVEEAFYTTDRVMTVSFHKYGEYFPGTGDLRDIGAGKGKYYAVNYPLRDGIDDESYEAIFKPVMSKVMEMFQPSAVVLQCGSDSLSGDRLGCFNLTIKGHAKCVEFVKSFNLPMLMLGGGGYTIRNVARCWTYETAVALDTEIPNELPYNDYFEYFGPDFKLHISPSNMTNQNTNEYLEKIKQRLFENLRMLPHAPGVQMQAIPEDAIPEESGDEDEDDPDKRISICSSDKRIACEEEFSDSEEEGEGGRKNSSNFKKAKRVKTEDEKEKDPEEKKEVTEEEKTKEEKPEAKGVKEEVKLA
T5 sequence (Q92769 whole entry): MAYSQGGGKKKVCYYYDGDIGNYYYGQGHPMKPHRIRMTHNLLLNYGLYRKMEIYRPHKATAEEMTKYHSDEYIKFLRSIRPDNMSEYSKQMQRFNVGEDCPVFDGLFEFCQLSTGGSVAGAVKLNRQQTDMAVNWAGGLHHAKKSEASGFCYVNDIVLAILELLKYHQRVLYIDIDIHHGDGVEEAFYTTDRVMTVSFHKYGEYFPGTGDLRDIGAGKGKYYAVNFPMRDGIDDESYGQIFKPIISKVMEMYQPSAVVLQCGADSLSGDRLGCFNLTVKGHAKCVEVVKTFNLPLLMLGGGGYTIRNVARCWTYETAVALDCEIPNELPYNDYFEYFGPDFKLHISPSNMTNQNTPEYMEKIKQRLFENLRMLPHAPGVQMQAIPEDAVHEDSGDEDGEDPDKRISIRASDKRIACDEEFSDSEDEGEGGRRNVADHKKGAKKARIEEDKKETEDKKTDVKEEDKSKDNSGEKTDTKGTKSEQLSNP
T6 sequence (Q9UQL6 whole entry): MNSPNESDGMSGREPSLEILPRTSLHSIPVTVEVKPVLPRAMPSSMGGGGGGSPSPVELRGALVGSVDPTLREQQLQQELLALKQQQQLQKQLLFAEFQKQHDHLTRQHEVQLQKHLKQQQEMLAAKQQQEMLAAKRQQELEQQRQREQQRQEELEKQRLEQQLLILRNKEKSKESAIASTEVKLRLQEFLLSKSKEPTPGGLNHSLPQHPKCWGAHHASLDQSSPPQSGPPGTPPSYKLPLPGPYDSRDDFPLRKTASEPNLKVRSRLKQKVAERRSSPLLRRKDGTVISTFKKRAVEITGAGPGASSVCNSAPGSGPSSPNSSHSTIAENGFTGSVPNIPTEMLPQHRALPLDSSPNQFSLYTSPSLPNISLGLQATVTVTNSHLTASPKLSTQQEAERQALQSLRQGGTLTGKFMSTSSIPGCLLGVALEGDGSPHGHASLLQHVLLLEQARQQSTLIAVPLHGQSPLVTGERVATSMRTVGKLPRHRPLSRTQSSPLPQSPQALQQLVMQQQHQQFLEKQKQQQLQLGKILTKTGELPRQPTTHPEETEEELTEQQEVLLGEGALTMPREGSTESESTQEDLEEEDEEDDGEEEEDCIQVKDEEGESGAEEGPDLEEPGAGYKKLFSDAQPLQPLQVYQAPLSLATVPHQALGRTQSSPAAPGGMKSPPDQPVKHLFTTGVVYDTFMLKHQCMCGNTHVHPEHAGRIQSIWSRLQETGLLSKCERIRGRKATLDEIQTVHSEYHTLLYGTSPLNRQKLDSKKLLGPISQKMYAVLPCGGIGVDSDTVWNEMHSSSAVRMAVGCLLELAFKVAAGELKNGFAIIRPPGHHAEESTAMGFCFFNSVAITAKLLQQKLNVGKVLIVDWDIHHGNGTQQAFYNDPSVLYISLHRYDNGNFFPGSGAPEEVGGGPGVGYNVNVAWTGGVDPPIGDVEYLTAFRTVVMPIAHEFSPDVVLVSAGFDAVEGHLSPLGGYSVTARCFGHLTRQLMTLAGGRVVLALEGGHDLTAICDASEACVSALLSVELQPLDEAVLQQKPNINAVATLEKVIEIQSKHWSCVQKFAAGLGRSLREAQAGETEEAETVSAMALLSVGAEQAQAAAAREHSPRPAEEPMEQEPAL
T3 sequence (O15379 whole entry): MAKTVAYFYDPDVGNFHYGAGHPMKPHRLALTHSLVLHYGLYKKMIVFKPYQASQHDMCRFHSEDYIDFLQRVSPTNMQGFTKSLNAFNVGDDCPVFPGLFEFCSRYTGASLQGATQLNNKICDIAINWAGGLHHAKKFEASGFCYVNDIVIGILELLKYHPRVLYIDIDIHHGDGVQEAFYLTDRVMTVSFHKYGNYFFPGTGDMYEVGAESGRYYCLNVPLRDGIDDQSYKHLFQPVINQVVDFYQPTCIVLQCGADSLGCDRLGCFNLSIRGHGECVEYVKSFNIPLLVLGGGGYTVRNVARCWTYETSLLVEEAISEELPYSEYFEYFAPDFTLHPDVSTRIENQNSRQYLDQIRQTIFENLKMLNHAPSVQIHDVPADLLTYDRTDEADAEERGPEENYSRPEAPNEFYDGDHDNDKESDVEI
T3 sequence (Q9Y618 395-489 partner limits assumed): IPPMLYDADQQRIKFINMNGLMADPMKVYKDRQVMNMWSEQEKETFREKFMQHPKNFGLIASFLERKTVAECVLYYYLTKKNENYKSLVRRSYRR
T4 sequence (P56524 whole entry): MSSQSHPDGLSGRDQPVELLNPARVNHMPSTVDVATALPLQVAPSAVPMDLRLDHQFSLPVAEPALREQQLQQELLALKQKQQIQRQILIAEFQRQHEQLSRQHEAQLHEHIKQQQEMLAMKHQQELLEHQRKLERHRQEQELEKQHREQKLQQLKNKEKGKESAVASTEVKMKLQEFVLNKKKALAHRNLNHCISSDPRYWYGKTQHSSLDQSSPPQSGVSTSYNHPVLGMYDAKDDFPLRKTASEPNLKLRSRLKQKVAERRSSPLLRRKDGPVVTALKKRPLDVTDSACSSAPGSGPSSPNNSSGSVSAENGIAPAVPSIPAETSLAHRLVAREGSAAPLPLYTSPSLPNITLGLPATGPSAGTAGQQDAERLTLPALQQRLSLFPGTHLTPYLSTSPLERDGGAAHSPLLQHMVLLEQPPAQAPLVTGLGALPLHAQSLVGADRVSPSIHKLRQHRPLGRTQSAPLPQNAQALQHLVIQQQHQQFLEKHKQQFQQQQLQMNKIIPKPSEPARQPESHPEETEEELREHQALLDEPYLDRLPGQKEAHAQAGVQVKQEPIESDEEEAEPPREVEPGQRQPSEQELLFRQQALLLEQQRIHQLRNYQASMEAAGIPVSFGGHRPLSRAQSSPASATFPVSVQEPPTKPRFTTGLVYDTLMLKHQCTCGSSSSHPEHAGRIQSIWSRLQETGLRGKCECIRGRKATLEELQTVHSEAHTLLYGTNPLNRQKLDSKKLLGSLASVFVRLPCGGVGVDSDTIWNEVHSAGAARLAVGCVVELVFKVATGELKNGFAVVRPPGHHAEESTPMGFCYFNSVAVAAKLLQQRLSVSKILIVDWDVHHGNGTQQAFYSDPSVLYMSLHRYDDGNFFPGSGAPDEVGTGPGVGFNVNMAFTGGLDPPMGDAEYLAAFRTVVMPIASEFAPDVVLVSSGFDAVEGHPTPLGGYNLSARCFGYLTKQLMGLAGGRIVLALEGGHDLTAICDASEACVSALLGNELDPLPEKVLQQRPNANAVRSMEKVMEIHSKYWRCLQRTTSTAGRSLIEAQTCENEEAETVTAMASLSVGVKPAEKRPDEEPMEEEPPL
T2 sequence (Q9UKV0 whole entry): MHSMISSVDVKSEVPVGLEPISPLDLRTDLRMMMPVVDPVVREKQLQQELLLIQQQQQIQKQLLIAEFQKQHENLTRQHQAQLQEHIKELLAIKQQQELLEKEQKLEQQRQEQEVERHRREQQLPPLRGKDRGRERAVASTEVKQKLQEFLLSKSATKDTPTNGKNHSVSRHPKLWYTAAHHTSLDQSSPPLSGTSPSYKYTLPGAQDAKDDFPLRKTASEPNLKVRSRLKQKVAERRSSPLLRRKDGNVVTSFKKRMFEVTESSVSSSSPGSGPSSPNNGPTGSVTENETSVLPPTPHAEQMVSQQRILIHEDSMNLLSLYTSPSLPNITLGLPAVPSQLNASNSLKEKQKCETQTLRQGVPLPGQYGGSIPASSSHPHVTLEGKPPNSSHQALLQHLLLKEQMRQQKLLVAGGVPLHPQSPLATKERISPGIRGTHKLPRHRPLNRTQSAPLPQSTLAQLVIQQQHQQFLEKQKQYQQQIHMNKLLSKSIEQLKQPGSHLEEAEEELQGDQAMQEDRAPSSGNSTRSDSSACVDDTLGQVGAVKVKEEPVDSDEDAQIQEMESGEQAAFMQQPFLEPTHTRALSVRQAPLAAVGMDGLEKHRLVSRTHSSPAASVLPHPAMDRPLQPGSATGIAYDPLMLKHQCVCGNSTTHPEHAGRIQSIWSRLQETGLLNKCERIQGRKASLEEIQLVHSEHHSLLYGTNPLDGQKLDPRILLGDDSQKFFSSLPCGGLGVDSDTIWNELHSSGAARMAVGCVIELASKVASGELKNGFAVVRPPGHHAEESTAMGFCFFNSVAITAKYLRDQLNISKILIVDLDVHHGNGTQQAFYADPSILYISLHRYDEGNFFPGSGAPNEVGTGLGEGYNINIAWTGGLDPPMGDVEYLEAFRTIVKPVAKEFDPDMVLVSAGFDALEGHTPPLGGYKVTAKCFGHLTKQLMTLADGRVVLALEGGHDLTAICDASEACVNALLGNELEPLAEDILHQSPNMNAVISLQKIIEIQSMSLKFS

With `O=C(/C=C/c1ccc(CN(CCOCCOCCNc2cccc3c2C(=O)N(C2CCC(=O)NC2=O)C3=O)CCc2c[nH]c3ccccc23)cc1)NO` (stereo not shown) [Compound 1, (E)-3-(4-(((2-(1H-indol-3-yl)ethyl)(2-(2-(2-((2-(2,6-dioxopiperidin-3-yl)-1,3-dioxoisoindolin-4-yl)amino)ethoxy)ethoxy)ethyl)amino)methyl)phenyl)-N-hydroxyacrylamide], the IC50 was 1.6e-07 M on HDAC6; 1.29e-06 M on HDAC3 (10-dose response curve, read-out: Compound IC50 (M), HDAC3); 3.48e-06 M at HDAC2 (10-dose response curve, read-out: Compound IC50 (M), HDAC2); more than 2e-05 M at HDAC5 (10-dose response curve, read-out: Compound IC50 (M), HDAC5); 1.06e-06 M at HDAC1 (10-dose response curve, read-out: Compound IC50 (M), HDAC1); 4.51e-06 M at HDAC8 (10-dose response curve, read-out: Compound IC50 (M), HDAC8). Also, the “inhibition of enzymatic activity of HDAC9 (in words)” value on HDAC9 is “did not inhibit”. Further, at HDAC3 (summary of Table 1), the “inhibition of enzymatic activity of HDAC3 (in words)” value is given as “Moderate inhibition”. Also, the “inhibition of enzymatic activity of HDAC4 (in words)” value against HDAC4 is reported as “did not inhibit”. For the same compound, the “inhibition of enzymatic activity of HDAC2 (in words)” value at HDAC2 (summary of Table 1) is recorded as “Moderate inhibition”. Moreover, the “inhibition of enzymatic activity of HDAC5 (in words)” value at HDAC5 (summary of Table 1) is “did not inhibit”. In addition, the “inhibition of enzymatic activity of HDAC1 (in words)” value on HDAC1 (summary of Table 1) was “Moderate inhibition”. The “inhibition of enzymatic activity of HDAC8 (in words)” value against HDAC8 (summary of Table 1) was “potently inhibited; also recorded: Moderate inhibition”.
